What was measured:
[1] = acetonitrile and acetonitrile/aqueous buffer (3:1 v/v); cited from earlier work
RNase A = molecular target: T1, RNase A (Bos taurus, UniProt P61823); settings: at 10 eq; of eleven carboxylates; cited from earlier work
T1 sequence (P61823 27-150): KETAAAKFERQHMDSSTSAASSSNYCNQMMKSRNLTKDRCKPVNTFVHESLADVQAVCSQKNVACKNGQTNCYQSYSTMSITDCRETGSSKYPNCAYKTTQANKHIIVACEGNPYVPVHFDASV

CHO K1 cells = assay: Internalization of esterified GFP by CHO K1 cells (flow cytometry, confocal microscopy); type: cell-based, Chinese hamster; settings: 15 μM GFP, 37° C., 2 h, versus unlabeled GFP
From the text: FIG. 8 is a graph showing quantification of internalization of labeled versus unlabeled GFP by CHO K1 cells using flow cytometry measuring median fluorescence intensity. Single cells were sorted based on forward scatter-side scatter measurements, and live cells were sorted using 7AAD (7-amino-actinomycin D) stain.
FIGS. 9A-C illustrate microscopy images of uptake of esterified GFP (green) by CHO K1 cells. FIG. 9A: Not esterified. FIG. 9B: Esterified with α-diazo-4-methylphenyl-N-propargylacetamide. FIG. 9C: Esterified with α-diazo-4-methylphenyl-N,N-dimethylacetamide. Cell nuclei are stained with Hoechst 33342 (blue).
Chinese hamster ovary (CHO) K1 cells were incubated at 37° C. for 2 h in F-12K medium (which was supplemented with penicillin/streptomycin) containing either unlabeled or labeled GFP (15 μM). […] Individual cells were imaged by confocal microscopy for two of the diazo compounds.

[2] = measured in dimethylsulfoxide; cited from earlier work

Compound | formation of the desired ester with carboxylic acids [1] | uptake of GFP esterified with the diazo compound into CHO K1 cells (CHO K1 cells) | other results
[N-]=[N+]=C1c2ccccc2-c2ccccc21 [9-diazofluorene] | gave the desired ester in aqueous medium | – | average number of carboxylates labeled in RNase A (RNase A): three
CNC(=O)C(=[N+]=[N-])c1ccc(C)cc1 [Diazo compound 11, α-diazo-4-methylphenyl-N-methylacetamide] | – | enhanced | –
Cc1ccc(C(=[N+]=[N-])C(=O)N(C)C)cc1 [Diazo compound 12, α-diazo-4-methylphenyl-N,N-dimethylacetamide] | – | enhanced | –
CCOC(=O)C(=[N+]=[N-])C(=O)OCC [diethyl 2-diazomalonate] | unreactive | – | –
CCOC(=O)CC(=O)OCC [diethylmalonate] | – | – | pKa [2]: 16.4

Source: patent US12110523B2, “Reagents and methods for esterification” (Wisconsin Alumni Research Foundation, priority 2015, dated 2024)
